Data set [1] addresses T1, wild type COX2 (Homo sapiens, UniProt P35354).
T1 sequence (P35354 18-604): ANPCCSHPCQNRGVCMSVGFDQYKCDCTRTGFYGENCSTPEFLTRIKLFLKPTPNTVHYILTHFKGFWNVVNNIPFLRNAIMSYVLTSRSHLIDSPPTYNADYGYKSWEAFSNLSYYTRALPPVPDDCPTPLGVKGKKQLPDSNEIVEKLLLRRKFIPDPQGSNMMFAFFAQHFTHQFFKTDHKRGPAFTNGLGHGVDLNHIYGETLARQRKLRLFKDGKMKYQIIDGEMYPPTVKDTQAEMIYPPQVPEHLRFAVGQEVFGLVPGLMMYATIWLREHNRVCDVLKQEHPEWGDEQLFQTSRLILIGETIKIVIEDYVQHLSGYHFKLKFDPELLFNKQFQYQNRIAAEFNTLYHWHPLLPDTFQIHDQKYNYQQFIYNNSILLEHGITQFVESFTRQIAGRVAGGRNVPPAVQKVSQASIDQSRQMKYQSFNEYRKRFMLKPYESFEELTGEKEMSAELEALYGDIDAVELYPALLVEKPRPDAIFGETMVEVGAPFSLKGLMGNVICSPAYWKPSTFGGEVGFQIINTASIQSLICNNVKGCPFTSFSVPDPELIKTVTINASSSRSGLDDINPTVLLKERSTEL
In words: Filter binding assay / enzymatic analysis of COX2, wild type. As to conditions: [14C]N-acetyl sphingosine binding to wild-type COX2, saturation plot; FIG. 3. The protocol: The binding activity of wild type COX2 or mutant COX2 (N181A, T564A, S565A, S567A) and N-acetyl sphingosine (N-AS) was analyzed by filter binding assay (Nat Commun. 2018 Apr. 16; 9(1):1479).
The binding rate (Vbinding) of [^14C]N-acetyl sphingosine (American Radiolabeled Chemicals, ARC1024) to wild-type COX2 and mutant COX2 (N181A, T564A, S565A, S567A) was expressed as the concentration of N-acetyl sphingosine. […] By using the calculated Kcat and KM, Kcat/KM (catalytic efficiency), which has been widely used as a measure of enzyme performance, was calculated from wild-type COX2 and mutant-type COX2 (N181A, T564A, S565A, S567A).

The nature of data set [2]: Brain distribution after oral or intravenous administration to normal mice. In kind it is in vivo, mouse. The conditions noted are these: for Kp: mouse, brain, FIG. 4C. How it is done:
FIGS. 4A to 4C illustrate a result of showing a concentration remaining in the brain for each time period after oral (p.o. 10 mg/kg) or intravenous administration (i.v. 1 mg/kg) of N-acetyl sphingosine to normal mice (FIG. 4A), a result of showing a concentration remaining in the brain after 24 hours (FIG. 4B), and a pharmacokinetic test analysis result for a brain distribution (FIG. 4C) (n=3/group).
In order to apply the compounds of the present invention to the diagnosis of degenerative brain diseases, it is important to distribute the compounds well to the brain after administration. To confirm this, the N-AS was administered orally (10 mg/kg) or through tail vein (1 mg/kg), and then the brain was extracted by time to measure the concentration of N-AS, and after 24 hours, the brain was extracted to measure the concentration of the remaining N-AS.

Data set [3] addresses T2, COX2 protein in microglia (Mus musculus, UniProt Q05769).
T2 construct: from tissue; host or cells: microglia isolated from the cerebrum of wild-type and APP/PS1 mice (C57BL/6 background)
T2 sequence (Q05769 18-604): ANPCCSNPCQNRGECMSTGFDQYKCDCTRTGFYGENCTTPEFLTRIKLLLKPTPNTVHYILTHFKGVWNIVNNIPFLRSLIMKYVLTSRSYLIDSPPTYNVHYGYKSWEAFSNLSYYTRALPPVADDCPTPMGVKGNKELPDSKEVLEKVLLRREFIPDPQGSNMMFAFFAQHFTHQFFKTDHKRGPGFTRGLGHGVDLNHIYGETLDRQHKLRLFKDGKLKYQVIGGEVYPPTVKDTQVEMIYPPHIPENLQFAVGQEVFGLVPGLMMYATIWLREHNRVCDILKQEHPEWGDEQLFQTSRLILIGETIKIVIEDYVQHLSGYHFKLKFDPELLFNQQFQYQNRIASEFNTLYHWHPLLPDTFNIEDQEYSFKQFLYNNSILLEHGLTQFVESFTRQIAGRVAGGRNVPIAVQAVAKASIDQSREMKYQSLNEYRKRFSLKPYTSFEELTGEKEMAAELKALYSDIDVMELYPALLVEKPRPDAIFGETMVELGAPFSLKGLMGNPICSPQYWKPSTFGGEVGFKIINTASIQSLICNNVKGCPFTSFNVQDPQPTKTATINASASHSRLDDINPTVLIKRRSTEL
In words: [14C] bound to COX2 immunoprecipitated from microglia after oral [14C]N-acetyl sphingosine. In kind it is in vivo. The conditions noted are these: 5-month-old APP/PS1 Alzheimer's animal model compared to control (WT); 10 μCi oral; after 1 hour; FIG. 6. An excerpt: Mouse experiments have been approved by the Kyungpook National University Institutional Animal Care and Use Committee (IACUC). A transgenic mouse line overexpressing APPswe (hAPP695swe) or PS1 (presenilin-1M146V) based on C57BL/6 mice (Charles River, UK) was used [Hereinafter, “APP mouse”: refers to a mouse overexpressing APPswe, “PS1 mouse”: refers to a mouse overexpressing presenilin-1M146V; GlaxoSmithKline]
After oral administration of 10 μCi of [^14C]N-acetyl sphingosine (American Radiolabeled Chemicals, ARC1024) to 5-month-old wild-type and APP/PS1 mice, microglia were isolated from the cerebra of the mice after 1 hour.
(§1) The COX2 protein of isolated microglia and neuroblastoma SH-SY5Y were isolated by immunoprecipitation, and then liquid scintillation counting was performed on [^14C].
After 1 hour, the COX2 in microglia was isolated from the control and the Alzheimer's animal model by immunoprecipitation, and the amount of COX2 labeled with [^14C] was confirmed.

For data set [4], the target named is T3, COX2 protein in neuroblastoma SH-SY5Y (Homo sapiens, UniProt P35354).
T3 construct: endogenous in cells; host or cells: SH-SY5Y neuroblastoma cells
T3 sequence (P35354 18-604): T1 sequence (P35354 18-604)
In words: [14C] bound to COX2 immunoprecipitated from neuroblastoma SH-SY5Y cells treated with [14C]N-acetyl sphingosine. It counts as cell-based. As to conditions: neuroblastoma SH-SY5Y compared to control; 2 μCi; after 1 hour; FIG. 8. How it is done:
In addition, neuroblastoma SH-SY5Y was treated with 2 μCi of [^14C]N-acetyl sphingosine (American Radiolabeled Chemicals, ARC1024) for 1 hour, and then cells were collected.
as §1
In other words, [^14C]N-acetyl sphingosine ([^14C]N-AS), in which carbon of N-AS strongly binding to COX2 was substituted with an isotope, was treated to the cancer cells (2 μCi). After 1 hour, the COX2 was isolated from the control and the cancer cells, neuroblastoma SH-SY5Y by immunoprecipitation, and the amount of COX2 labeled with [^14C] was confirmed.

`CCCCCCCCCCCCC/C=C/[C@@H](O)[C@H](CO)NC(C)=O` [N-AS, N-acetyl sphingosine]: in data set [1], the Kcat came to 0.008 s⁻¹. Moreover, the Kp in data set [2] (intravenous, tail vein administration 1 mg/kg) was 2.16; in data set [2] (oral administration 10 mg/kg) it was 3.18. Moreover, the “concentration of N-AS in the brain” value in data set [2] (oral 10 mg/kg or tail vein 1 mg/kg, by time and after 24 hours, FIGS. 4A and 4B) was “high”.
In the case of `CCCCCCCCCCCCC/C=C/[C@@H](O)[C@H](CO)N[14C](C)=O` [[^14C]N-AS, [^14C]N-acetyl sphingosine], the “amount of [14C]-labeled COX2 in microglia” value in data set [3] is on record as “increased”. In addition, the “amount of [14C]-labeled COX2 in cancer cells” value in data set [4] was “increased”.

The values are drawn from US12332244B2, “Composition for diagnosing diseases associated with COX2 overexpression and screening method therefor” (KYUNGPOOK NATIONAL UNIVERSITY INDUSTRY-ACADEMIC COOPERATION …, priority 2018, dated 2025).
